Reference: article PMC5580309, “Molecular-scale features that govern the effects of O-glycosylation on a carbohydrate-binding module” (Chemical Science, 2015)
Bridge positions count the residues as written; N and C are the ends. Square brackets hold non-standard residues; d marks the D form. Peptide text beside a SMILES is read from it. * marks the point of attachment. αMan = OC[C@H]1O[C@H](*)[C@@H](O)[C@@H](O)[C@@H]1O

Target: T1, thermolysin (Bacillus thermoproteolyticus, UniProt P00800)
T1 sequence (P00800 233-548): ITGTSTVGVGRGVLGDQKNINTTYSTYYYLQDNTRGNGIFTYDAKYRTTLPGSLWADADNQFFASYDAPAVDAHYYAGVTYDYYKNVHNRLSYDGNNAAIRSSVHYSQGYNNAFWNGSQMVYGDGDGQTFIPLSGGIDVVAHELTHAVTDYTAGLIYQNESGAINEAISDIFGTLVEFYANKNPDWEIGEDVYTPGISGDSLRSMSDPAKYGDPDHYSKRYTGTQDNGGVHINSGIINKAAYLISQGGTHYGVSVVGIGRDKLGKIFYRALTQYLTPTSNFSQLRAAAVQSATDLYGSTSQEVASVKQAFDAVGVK
Assay: Proteolytic stability: half-life to thermolysin degradation
Format: in vitro ADME
Settings: for Change in Half-Life to Thermolysin Degradation: glyco-variant minus its corresponding unglycosylated CBM (e.g. 2-1), *** not used in the correlation plot; for half-life: thermolysin (isolated protease), thermolysin degradation, mean of three trials ± SD, procedures as described previously (ESI ref 18)
Experimental: All error bars reported are standard deviations of data achieved from three separate trials.
cellulose that were determined in accordance with our procedures as described previously 18.
The results are presented as mean of three trials ± SD. *Denotes an averaged value of four trials

| Structure (SMILES) | Change in Half-Life to Thermolysin Degradation [min] | half-life [min] |
| --- | --- | --- |
| CC[C@H](C)[C@@H]1NC(=O)CNC(=O)CNC(=O)[C@@H](NC(=O)[C@H](CCC(N)=O)NC(=O)CNC(=O)[C@H](Cc2ccc(O)cc2)NC(=O)[C@H](C)NC(=O)[C@H](CO[C@H]2O[C@H](CO)[C@@H](O)[C@H](O)[C@@H]2O)NC(=O)[C@H](CCC(N)=O)NC(=O)[C@@H](N)[C@@H](C)O)CSSC[C@@H]2NC(=O)[C@H]([C@@H](C)O)NC(=O)[C@H]([C@@H](C)O)NC(=O)CNC(=O)[C@H](CO)NC(=O)[C@H](C)NC(=O)[C@H](CSSC[C@@H](C(=O)N[C@@H](CC(C)C)C(=O)O)NC(=O)[C@H](CCC(N)=O)NC(=O)[C@H](CO)NC(=O)[C@H](Cc3ccc(O)cc3)NC(=O)[C@H](Cc3ccc(O)cc3)NC(=O)[C@@H]3CCCN3C(=O)[C@H](CC(N)=O)NC(=O)[C@H](CC(C)C)NC(=O)[C@H](C(C)C)NC(=O)[C@H](CCC(N)=O)NC2=O)NC(=O)[C@H](C(C)C)NC(=O)[C@H]([C@@H](C)O)NC(=O)[C@@H]2CCCN2C(=O)CNC(=O)[C@H](CO)NC(=O)[C@H](Cc2ccc(O)cc2)NC(=O)CNC1=O [CBM variant 9] (H-TQS(αMan)AYGQCGGIGYSGPTVCASGTTCQVLNPYYSQCL-OH; disulfide 8-25, 19-35) | 25.8 | 39 ± 3 |
| CC[C@H](C)[C@@H]1NC(=O)CNC(=O)CNC(=O)[C@@H](NC(=O)[C@H](CCC(N)=O)NC(=O)CNC(=O)[C@H](C)NC(=O)[C@H](Cc2c[nH]cn2)NC(=O)[C@H](CO)NC(=O)[C@H](CCC(N)=O)NC(=O)[C@@H](N)[C@@H](C)O)CSSC[C@@H]2NC(=O)[C@H]([C@@H](C)O)NC(=O)[C@H]([C@@H](C)O)NC(=O)CNC(=O)[C@H](CO)NC(=O)[C@H](C)NC(=O)[C@H](CSSC[C@@H](C(=O)N[C@@H](CC(C)C)C(=O)O)NC(=O)[C@H](CCC(N)=O)NC(=O)[C@H](CO)NC(=O)[C@H](Cc3ccc(O)cc3)NC(=O)[C@H](Cc3ccc(O)cc3)NC(=O)[C@@H]3CCCN3C(=O)[C@H](CC(N)=O)NC(=O)[C@H](CC(C)C)NC(=O)[C@H](C(C)C)NC(=O)[C@H](CCC(N)=O)NC2=O)NC(=O)[C@H](C(C)C)NC(=O)[C@H]([C@@H](C)O)NC(=O)[C@@H]2CCCN2C(=O)CNC(=O)[C@H](CO)NC(=O)[C@H](Cc2ccc(O)cc2)NC(=O)CNC1=O [CBM variant 10] (H-TQSHAGQCGGIGYSGPTVCASGTTCQVLNPYYSQCL-OH; disulfide 8-25, 19-35) | – | 4.8 ± 1.2 |
| CC[C@H](C)[C@@H]1NC(=O)CNC(=O)CNC(=O)[C@@H](NC(=O)[C@H](CCC(N)=O)NC(=O)CNC(=O)[C@H](C)NC(=O)[C@H](Cc2c[nH]cn2)NC(=O)[C@H](CO[C@H]2O[C@H](CO)[C@@H](O)[C@H](O)[C@@H]2O)NC(=O)[C@H](CCC(N)=O)NC(=O)[C@@H](N)[C@@H](C)O)CSSC[C@@H]2NC(=O)[C@H]([C@@H](C)O)NC(=O)[C@H]([C@@H](C)O)NC(=O)CNC(=O)[C@H](CO)NC(=O)[C@H](C)NC(=O)[C@H](CSSC[C@@H](C(=O)N[C@@H](CC(C)C)C(=O)O)NC(=O)[C@H](CCC(N)=O)NC(=O)[C@H](CO)NC(=O)[C@H](Cc3ccc(O)cc3)NC(=O)[C@H](Cc3ccc(O)cc3)NC(=O)[C@@H]3CCCN3C(=O)[C@H](CC(N)=O)NC(=O)[C@H](CC(C)C)NC(=O)[C@H](C(C)C)NC(=O)[C@H](CCC(N)=O)NC2=O)NC(=O)[C@H](C(C)C)NC(=O)[C@H]([C@@H](C)O)NC(=O)[C@@H]2CCCN2C(=O)CNC(=O)[C@H](CO)NC(=O)[C@H](Cc2ccc(O)cc2)NC(=O)CNC1=O [CBM variant 11] (H-TQS(αMan)HAGQCGGIGYSGPTVCASGTTCQVLNPYYSQCL-OH; disulfide 8-25, 19-35) | 6 | 10.8 ± 1.8 |
| CC[C@H](C)[C@@H]1NC(=O)CNC(=O)CNC(=O)[C@@H](NC(=O)[C@H](CCC(N)=O)NC(=O)CNC(=O)[C@H](Cc2ccc(O)cc2)NC(=O)[C@H](Cc2c[nH]cn2)NC(=O)[C@@H](NC(=O)[C@H](CCC(N)=O)NC(=O)[C@@H](N)[C@@H](C)O)[C@@H](C)O)CSSC[C@@H]2NC(=O)[C@H]([C@@H](C)O)NC(=O)[C@H]([C@@H](C)O)NC(=O)CNC(=O)[C@H](CO)NC(=O)[C@H](C)NC(=O)[C@H](CSSC[C@@H](C(=O)N[C@@H](CC(C)C)C(=O)O)NC(=O)[C@H](CCC(N)=O)NC(=O)[C@H](CO)NC(=O)[C@H](Cc3ccc(O)cc3)NC(=O)[C@H](Cc3ccc(O)cc3)NC(=O)[C@@H]3CCCN3C(=O)[C@H](CC(N)=O)NC(=O)[C@H](CC(C)C)NC(=O)[C@H](C(C)C)NC(=O)[C@H](CCC(N)=O)NC2=O)NC(=O)[C@H](C(C)C)NC(=O)[C@H]([C@@H](C)O)NC(=O)[C@@H]2CCCN2C(=O)CNC(=O)[C@H](CO)NC(=O)[C@H](Cc2ccc(O)cc2)NC(=O)CNC1=O [CBM variant 12] (H-TQTHYGQCGGIGYSGPTVCASGTTCQVLNPYYSQCL-OH; disulfide 8-25, 19-35) | – | 21.6 ± 1.2 |
| CC[C@H](C)[C@@H]1NC(=O)CNC(=O)CNC(=O)[C@@H](NC(=O)[C@H](CCC(N)=O)NC(=O)CNC(=O)[C@H](Cc2ccc(O)cc2)NC(=O)[C@H](Cc2c[nH]cn2)NC(=O)[C@@H](NC(=O)[C@H](CCC(N)=O)NC(=O)[C@@H](N)[C@@H](C)O)[C@@H](C)O[C@H]2O[C@H](CO)[C@@H](O)[C@H](O)[C@@H]2O)CSSC[C@@H]2NC(=O)[C@H]([C@@H](C)O)NC(=O)[C@H]([C@@H](C)O)NC(=O)CNC(=O)[C@H](CO)NC(=O)[C@H](C)NC(=O)[C@H](CSSC[C@@H](C(=O)N[C@@H](CC(C)C)C(=O)O)NC(=O)[C@H](CCC(N)=O)NC(=O)[C@H](CO)NC(=O)[C@H](Cc3ccc(O)cc3)NC(=O)[C@H](Cc3ccc(O)cc3)NC(=O)[C@@H]3CCCN3C(=O)[C@H](CC(N)=O)NC(=O)[C@H](CC(C)C)NC(=O)[C@H](C(C)C)NC(=O)[C@H](CCC(N)=O)NC2=O)NC(=O)[C@H](C(C)C)NC(=O)[C@H]([C@@H](C)O)NC(=O)[C@@H]2CCCN2C(=O)CNC(=O)[C@H](CO)NC(=O)[C@H](Cc2ccc(O)cc2)NC(=O)CNC1=O [CBM variant 13] (H-TQT(αMan)HYGQCGGIGYSGPTVCASGTTCQVLNPYYSQCL-OH; disulfide 8-25, 19-35) | 46.8 | 68.4 ± 10.8 |
| CC[C@H](C)[C@@H]1NC(=O)CNC(=O)CNC(=O)[C@@H](NC(=O)[C@H](CCC(N)=O)NC(=O)CNC(=O)[C@H](Cc2ccc(O)cc2)NC(=O)[C@H](Cc2c[nH]cn2)NC(=O)[C@H](CS)NC(=O)[C@H](CCC(N)=O)NC(=O)[C@@H](N)[C@@H](C)O)CSSC[C@@H]2NC(=O)[C@H]([C@@H](C)O)NC(=O)[C@H]([C@@H](C)O)NC(=O)CNC(=O)[C@H](CO)NC(=O)[C@H](C)NC(=O)[C@H](CSSC[C@@H](C(=O)N[C@@H](CC(C)C)C(=O)O)NC(=O)[C@H](CCC(N)=O)NC(=O)[C@H](CO)NC(=O)[C@H](Cc3ccc(O)cc3)NC(=O)[C@H](Cc3ccc(O)cc3)NC(=O)[C@@H]3CCCN3C(=O)[C@H](CC(N)=O)NC(=O)[C@H](CC(C)C)NC(=O)[C@H](C(C)C)NC(=O)[C@H](CCC(N)=O)NC2=O)NC(=O)[C@H](C(C)C)NC(=O)[C@H]([C@@H](C)O)NC(=O)[C@@H]2CCCN2C(=O)CNC(=O)[C@H](CO)NC(=O)[C@H](Cc2ccc(O)cc2)NC(=O)CNC1=O [CBM variant 14] (H-TQCHYGQCGGIGYSGPTVCASGTTCQVLNPYYSQCL-OH; disulfide 8-25, 19-35) | – | 10.8 ± 2.4 |
| CC[C@H](C)[C@@H]1NC(=O)CNC(=O)CNC(=O)[C@@H](NC(=O)[C@H](CCC(N)=O)NC(=O)CNC(=O)[C@H](Cc2ccc(O)cc2)NC(=O)[C@H](Cc2c[nH]cn2)NC(=O)[C@H](CS[C@H]2O[C@H](CO)[C@@H](O)[C@H](O)[C@@H]2O)NC(=O)[C@H](CCC(N)=O)NC(=O)[C@@H](N)[C@@H](C)O)CSSC[C@@H]2NC(=O)[C@H]([C@@H](C)O)NC(=O)[C@H]([C@@H](C)O)NC(=O)CNC(=O)[C@H](CO)NC(=O)[C@H](C)NC(=O)[C@H](CSSC[C@@H](C(=O)N[C@@H](CC(C)C)C(=O)O)NC(=O)[C@H](CCC(N)=O)NC(=O)[C@H](CO)NC(=O)[C@H](Cc3ccc(O)cc3)NC(=O)[C@H](Cc3ccc(O)cc3)NC(=O)[C@@H]3CCCN3C(=O)[C@H](CC(N)=O)NC(=O)[C@H](CC(C)C)NC(=O)[C@H](C(C)C)NC(=O)[C@H](CCC(N)=O)NC2=O)NC(=O)[C@H](C(C)C)NC(=O)[C@H]([C@@H](C)O)NC(=O)[C@@H]2CCCN2C(=O)CNC(=O)[C@H](CO)NC(=O)[C@H](Cc2ccc(O)cc2)NC(=O)CNC1=O [CBM variant 15] (H-TQC(αMan)HYGQCGGIGYSGPTVCASGTTCQVLNPYYSQCL-OH; disulfide 8-25, 19-35) | 1.2 | 12 ± 1.8 |
| CC[C@H](C)[C@@H]1NC(=O)CNC(=O)CNC(=O)[C@@H](NC(=O)[C@H](CCC(N)=O)NC(=O)CNC(=O)[C@H](Cc2ccc(O)cc2)NC(=O)[C@H](Cc2c[nH]cn2)NC(=O)[C@@H](CO)NC(=O)[C@H](CCC(N)=O)NC(=O)[C@@H](N)[C@@H](C)O)CSSC[C@@H]2NC(=O)[C@H]([C@@H](C)O)NC(=O)[C@H]([C@@H](C)O)NC(=O)CNC(=O)[C@H](CO)NC(=O)[C@H](C)NC(=O)[C@H](CSSC[C@@H](C(=O)N[C@@H](CC(C)C)C(=O)O)NC(=O)[C@H](CCC(N)=O)NC(=O)[C@H](CO)NC(=O)[C@H](Cc3ccc(O)cc3)NC(=O)[C@H](Cc3ccc(O)cc3)NC(=O)[C@@H]3CCCN3C(=O)[C@H](CC(N)=O)NC(=O)[C@H](CC(C)C)NC(=O)[C@H](C(C)C)NC(=O)[C@H](CCC(N)=O)NC2=O)NC(=O)[C@H](C(C)C)NC(=O)[C@H]([C@@H](C)O)NC(=O)[C@@H]2CCCN2C(=O)CNC(=O)[C@H](CO)NC(=O)[C@H](Cc2ccc(O)cc2)NC(=O)CNC1=O [CBM variant 16] (H-TQ[dS]HYGQCGGIGYSGPTVCASGTTCQVLNPYYSQCL-OH; disulfide 8-25, 19-35) | – | 11.4 ± 2.4 |
